Experimental data: publication PMC5945843, “Direct neurotransmitter activation of voltage-gated potassium channels” (Nature Communications, 2018)
Several values for one entry are separate records, joined by “and”; a condition that tells them apart may be missing. Equal entries are not always repeated. Where two headings read alike, the source gives them in different places.

What was measured:
KCNQ4 = KCNQ4 (Homo sapiens, UniProt P56696); assay: TEVC in Xenopus oocytes; assay type: cell-based; conditions: for Non-normalized tail current V0.5: Ctrl 8.6 ± 4.3; for Normalized tail current V0.5: Ctrl -8.7 ± 0.8
From the text: (§4) cRNA transcripts encoding human KCNQ1, KCNQ2, KCNQ3, KCNQ4, KCNQ5, KCNA1, or KCNE1 were generated by in vitro transcription using the T7 polymerase mMessage mMachine kit (Thermo Fisher Scientific), after vector linearization, from complementary DNA (cDNA) sub-cloned into plasmids incorporating Xenopus laevis β-globin 5′ and 3′ untranslated regions flanking the coding region to enhance translation and cRNA stability. cRNA was quantified by spectrophotometry. […] Defolliculated stage V and VI Xenopus laevis oocytes (Ecocyte Bioscience, Austin, TX) were injected with Kv channel α subunit cRNAs (5–10 ng).
(§5) Oocytes were placed in a small-volume oocyte bath (Warner) and viewed with a dissection microscope. Chemicals were sourced from Sigma. Bath solution was (in mM): 96 NaCl, 4 KCl, 1 MgCl2, 1 CaCl2, 10 HEPES (pH 7.6). […] Valeric acid was stored as a 5 mM stock in Ringer’s solution at 4 °C and diluted to working concentrations each experimental day. β-hydroxybutyric acid was stored at 4 °C as a 480 mM stock in 100% ethanol and diluted to working concentrations each experimental day. All compounds were introduced to the recording bath via gravity perfusion at a constant flow of 1 ml per min for 3 min prior to recording. Pipettes were of 1–2 MΩ resistance when filled with 3 M KCl. Currents were recorded in response to pulses between −80 mV and +40 mV at 20 mV intervals, or a single pulse to +40 mV, from a holding potential of −80 mV, to yield current-voltage relationships, current magnitude, and for quantifying activation rate. Deactivation was recorded at −80 mV after a single activating pulse to +40 mV, from a holding potential of −80 mV. […] TEVC data analysis was performed with Clampfit (Molecular Devices) and Graphpad Prism software (GraphPad, San Diego, CA, USA); values are stated as mean ± SEM. Normalized tail currents were plotted versus prepulse voltage and fitted with a single Boltzmann function:1 g=(A1-A2)/1+expV1/2-V∕VS+A2, where g is the normalized tail conductance, A1 is the initial value at −∞, A2 is the final value at +∞, V1/2 is the half-maximal voltage of activation, and VS the slope factor. Activation and deactivation kinetics were fitted with single exponential functions.

KCNQ5 = KCNQ5 (Homo sapiens, UniProt Q9NR82); assay: TEVC in Xenopus oocytes; assay type: cell-based; conditions: for Slope: Ctrl 9.6 ± 1.9; for Normalized tail current V0.5: Ctrl -41.7 ± 1.5; for Non-normalized tail current V0.5: Ctrl -[…]
From the text: as §4, §5

KCNA1 (Kv1.1) = KCNA1 (Kv1.1) (Homo sapiens, UniProt Q09470); assay: TEVC in Xenopus oocytes; assay type: cell-based; conditions: for Slope: Ctrl 6.2 ± 0.4; for Normalized tail current V0.5: Ctrl -29.8 ± 0.69
KCNA1 (Kv1.1), sequence (Q09470 whole entry): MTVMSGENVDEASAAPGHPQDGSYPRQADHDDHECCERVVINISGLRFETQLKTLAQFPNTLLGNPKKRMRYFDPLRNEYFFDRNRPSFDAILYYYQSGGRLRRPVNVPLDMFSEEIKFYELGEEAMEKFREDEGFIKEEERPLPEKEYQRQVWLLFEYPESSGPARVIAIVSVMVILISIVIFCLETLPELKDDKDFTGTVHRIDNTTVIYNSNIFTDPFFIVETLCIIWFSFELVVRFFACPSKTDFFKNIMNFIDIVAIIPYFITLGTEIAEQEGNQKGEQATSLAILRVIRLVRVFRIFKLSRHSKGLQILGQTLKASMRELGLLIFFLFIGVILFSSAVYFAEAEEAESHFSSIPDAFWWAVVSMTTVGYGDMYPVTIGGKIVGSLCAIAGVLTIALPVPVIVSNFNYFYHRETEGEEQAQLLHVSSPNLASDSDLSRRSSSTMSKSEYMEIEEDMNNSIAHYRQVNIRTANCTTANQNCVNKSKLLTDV
From the text: Chemicals were sourced from Sigma.

KCNQ1-KCNE1 = KCNQ1-KCNE1 (Homo sapiens, UniProt P51787); assay: TEVC and resting membrane potential in Xenopus oocytes; assay type: cell-based
From the text: as §4, §5

[1] = tested on: water-injected Xenopus laevis oocytes; assay: TEVC of water-injected oocytes (endogenous currents, EM); assay type: cell-based
From the text: Chemicals were sourced from Sigma. […] […].

[2] = target: T1, KCNQ2/3 channels expressed in CHO cells (Mus musculus, UniProt Q8K3F6+Q9Z351); assay: Whole-cell patch clamp of transfected CHO cells; assay type: cell-based; conditions: 100 µM GABA
T1 construct: expressed in transfected cells; host or cells: CHO cells (ATCC), transient transfection with TransIT-LT1
Method: (§1) CHO cells (ATCC) were seeded on poly-L-lysine-treated glass coverslips in 24-well plates and transfected the next day using 0.5 µg each of mouse KCNQ2 and KCNQ3 cDNA in a CMV vector per well in normal media (DMEM with 10% FBS and 1% penicillin/streptomycin). The transfection reagent used was TransIT-LT1 (Mirus Bio LLC, Madison, WI, USA) and cells were patched 48–72 h post transfection. […] Media was replenished every 3 days and cultures were split once a week. […] Cell culture plastic ware and reagents were purchased from VWR and Fisher Scientific unless otherwise stated.
(§2) For both CHO cells and PC12 cells, currents were recorded in whole-cell mode at room temperature (22–25 °C) with 3–6 MΩ borosilicate glass electrodes backfilled with solution containing (in mM): 90 K acetate, 20 KCl, 40 HEPES, 3 MgCl2, 1 CaCl2, 3 EGTA-KOH, 2 MgATP; pH 7.2.
(§3) The pClamp8 (Molecular Devices) software package was used for data acquisition and Clampfit was used for analysis, along with Graphpad Prism 7.0 (Graphpad).

[3] = tested on: native M-current in PC12 cells; assay: Whole-cell patch clamp of NGF-differentiated PC12 cells; assay type: cell-based, rat; conditions: 100 µM GABA + 100 µM picrotoxin + 10 µM CGP55845
Method: as §1, §2, §3

[4] = tested on: native M-current in mouse DRG neurons; assay: Perforated patch-clamp of dorsal root ganglion neurons; assay type: cell-based; conditions: 100 µM GABA
Method: Adult male mice were purchased from Jackson Labs and then housed and used according to a protocol approved by the Institutional Animal Care and Use Committee of University of California, Irvine, and consistent with recommendations in the NIH Guide for the Care and Use of Laboratory Animals (8th edition, 2011). […]. DRG neurons were then cultured on poly-L-lysine and laminin-coated plastic coverslips in RPMI 1640 with 10% horse serum and 1% penicillin/streptomycin at 37 °C for 1–4 days before electrophysiological recordings were performed using perforated patch clamp. Amphotericin B (VWR, Radnor, PA) was dissolved in DMSO at 5 mg/ml (stock solution), then diluted to 150–200 µg/ml in intracellular solution and sonicated with a probe sonicator on ice for 5 s, kept at room temperature in the dark, and replaced every hour with a fresh solution from the stock. The working amphotericin solution was backfilled into borosilicate glass electrodes (3–5 MΩ) previously tip-filled to ~0.5 mm with intracellular solution lacking amphotericin B, immediately prior to sealing onto individual neurons. After whole-cell configuration was achieved and capacitance stabilized, whole-cell recordings were performed essentially as described in the prior paragraph, with the following differences: neurons were held at −20 mV to inactivate other channels before the test pulses; offline leak subtraction was performed.

[5] = target: KCNQ3* (expression-optimized KCNQ3-A315T mutant) (Homo sapiens, UniProt O43525, A315T); conditions: for Slope: Ctrl 4.5 ± 0.9; for Normalized tail current V0.5: Ctrl -51.4 ± 1.9; for Non-normalized tail current V0.5: Ctrl -47.5 ± 4.4
From the text: as §4, §5

KCNQ1 = KCNQ1 (Homo sapiens, UniProt P51787); assay: Two-electrode voltage clamp (TEVC) in Xenopus oocytes
From the text: as §4
Oocytes were placed in a small-volume oocyte bath (Warner) and viewed with a dissection microscope. Chemicals were sourced from Sigma. Bath solution was (in mM): 96 NaCl, 4 KCl, 1 MgCl2, 1 CaCl2, 10 HEPES (pH 7.6). […] Valeric acid was stored as a 5 mM stock in Ringer’s solution at 4 °C and diluted to working concentrations each experimental day. β-hydroxybutyric acid was stored at 4 °C as a 480 mM stock in 100% ethanol and diluted to working concentrations each experimental day. All compounds were introduced to the recording bath via gravity perfusion at a constant flow of 1 ml per min for 3 min prior to recording. Pipettes were of 1–2 MΩ resistance when filled with 3 M KCl. Currents were recorded in response to pulses between −80 mV and +40 mV at 20 mV intervals, or a single pulse to +40 mV, from a holding potential of −80 mV, to yield current-voltage relationships, current magnitude, and for quantifying activation rate. Deactivation was recorded at −80 mV after a single activating pulse to +40 mV, from a holding potential of −80 mV. For wortmannin studies, oocytes were incubated in 30 µM wortmannin for 3 h at 16 °C prior to recording. TEVC data analysis was performed with Clampfit (Molecular Devices) and Graphpad Prism software (GraphPad, San Diego, CA, USA); values are stated as mean ± SEM. […]

[6] = target: homomeric wild-type human KCNQ3 (Homo sapiens, UniProt O43525); assay: 3H-GABA radioligand binding (single concentration, cold competition, saturation) in Xenopus oocytes; conditions: cold (unlabeled) GABA 1 mM
homomeric wild-type human KCNQ3, sequence (O43525 whole entry): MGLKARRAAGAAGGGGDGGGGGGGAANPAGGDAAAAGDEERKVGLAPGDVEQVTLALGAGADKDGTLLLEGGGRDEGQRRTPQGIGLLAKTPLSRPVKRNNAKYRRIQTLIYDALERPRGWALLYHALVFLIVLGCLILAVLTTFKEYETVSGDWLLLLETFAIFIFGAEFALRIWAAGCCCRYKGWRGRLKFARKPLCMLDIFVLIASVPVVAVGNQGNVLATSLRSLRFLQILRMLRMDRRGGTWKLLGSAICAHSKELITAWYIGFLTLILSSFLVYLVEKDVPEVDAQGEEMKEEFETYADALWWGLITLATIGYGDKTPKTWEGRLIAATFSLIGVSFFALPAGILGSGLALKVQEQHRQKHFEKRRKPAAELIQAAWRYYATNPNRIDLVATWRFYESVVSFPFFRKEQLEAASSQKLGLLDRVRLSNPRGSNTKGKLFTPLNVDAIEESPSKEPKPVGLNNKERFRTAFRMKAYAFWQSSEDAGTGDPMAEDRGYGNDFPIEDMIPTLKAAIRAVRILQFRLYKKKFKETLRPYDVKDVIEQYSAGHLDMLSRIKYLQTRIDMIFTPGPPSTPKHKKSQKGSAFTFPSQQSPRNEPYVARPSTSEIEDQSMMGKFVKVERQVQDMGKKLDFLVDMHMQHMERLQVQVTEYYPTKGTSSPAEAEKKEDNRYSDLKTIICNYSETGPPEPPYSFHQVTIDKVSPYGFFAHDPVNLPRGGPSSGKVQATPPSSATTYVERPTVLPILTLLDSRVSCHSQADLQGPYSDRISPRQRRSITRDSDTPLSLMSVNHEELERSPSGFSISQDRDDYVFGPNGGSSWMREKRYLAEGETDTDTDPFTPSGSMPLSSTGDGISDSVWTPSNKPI
Method: Defolliculated stage V and VI Xenopus laevis oocytes (Ecocyte Bioscience, Austin, TX) were injected with Kv channel α subunit cRNAs (5–10 ng).
Oocytes were then washed four times in 16 °C ND96, then transferred to individual wells in a 96-well plate and lysed in 0.2% SDS in ND96. Each oocyte lysate was transferred to a scintillation vial containing 5 ml cytoscint scintillation cocktail fluid (MP Biomedicals, Santa Ana, CA). Vials were capped, shaken, and then allowed to sit at room temperature for at least 30 min before scintillation counting in a Beckmann Coulter LS6500 liquid scintillation counter. […] Oocytes were next incubated in 1 ml per group homogenization buffer (in mM, 150 NaCl, 2 CaCl2, 20 Tris, 2% Nonidet P-40) with 2% protease inhibitor cocktail (Pierce) and then lysed with a 20 ml pipette tip, vortexed, centrifuged at 4000 r.p.m. (10 min, 4 °C). The supernatant was mixed in Eppendorf tubes end-over-end overnight at 4 °C with high-capacity streptavidin agarose beads (Thermo Fisher, Huntington Beach, CA) (20 µl per group).
For the binding competition assay, the control group was treated as before. […] Each oocyte lysate was transferred to a scintillation vial containing 5 ml cytoscint scintillation cocktail fluid (MP Biomedicals). […] Bmax and Kd values were calculated using automated nonlinear regression analysis in GraphPad prism.

[7] = especially at subthreshold potentials

## NCCCC(=O)O [GABA, γ-aminobutyric acid]
KCNQ4
  GABA sensitivity of channel activity: relatively GABA-insensitive
KCNQ4; 0.1 µM GABA
  Non-normalized tail current V0.5: -8.8 ± 4.3 mV
  Normalized tail current V0.5: -9.6 ± 0.7 mV
KCNQ4; 1 µM GABA
  Non-normalized tail current V0.5: -9.0 ± 4.3 mV
  Normalized tail current V0.5: -9.6 ± 0.8 mV
KCNQ4; 10 µM GABA
  Non-normalized tail current V0.5: -9.3 ± 3.7 mV
  Normalized tail current V0.5: -9.8 ± 0.8 mV
KCNQ4; 100 µM GABA
  Non-normalized tail current V0.5: -9.0 ± 3.8 mV
  Normalized tail current V0.5: -10.3 ± 0.8 mV
KCNQ4; 1 mM GABA
  Non-normalized tail current V0.5: -8.4 ± 3.4 mV
  Normalized tail current V0.5: -8.8 ± 0.8 mV
KCNQ5; 0.001 µM GABA
  Slope: 9.4 ± 4.3 mV
  Normalized tail current V0.5: -41.9 ± 2.9 mV
  Non-normalized tail current V0.5: -41.8 ± 2.8 mV
KCNQ5; 0.01 µM GABA
  Slope: 7.6 ± 2.4 mV
  Normalized tail current V0.5: -50.1 ± 2.9 mV
  Non-normalized tail current V0.5: -49.5 ± 2.5 mV
KCNQ5; 0.1 µM GABA
  Slope: 7.4 ± 1.2 mV
  Normalized tail current V0.5: -53.9 ± 1.7 mV
  Non-normalized tail current V0.5: -51.3 ± 2.1 mV
KCNQ5; 1 µM GABA
  Slope: 7.6 ± 1.2 mV
  Normalized tail current V0.5: -54.2 ± 1.6 mV
  Non-normalized tail current V0.5: -51.2 ± 2.6 mV
KCNQ5; 10 µM GABA
  Slope: 8.4 ± 1.4 mV
  Normalized tail current V0.5: -57.0 ± 1.8 mV
  Non-normalized tail current V0.5: -54.5 ± 2.3 mV
KCNQ5; 100 µM GABA
  Slope: 8.5 ± 1.5 mV
  Normalized tail current V0.5: -57.4 ± 1.8 mV
  Non-normalized tail current V0.5: -54.5 ± 2.7 mV
KCNQ5; 1 mM GABA
  Slope: 8.8 ± 1.5 mV
  Normalized tail current V0.5: -58.3 ± 1.8 mV
  Non-normalized tail current V0.5: -56.4 ± 2.4 mV
KCNQ5; EC50 ratio at −60 mV
  higher GABA sensitivity of KCNQ5 than KCNQ3*: 17 fold
KCNQ5; at −60 mV
  EC50: 60 ± 10 nM
KCNQ5; [7]
  effect on channel: activates
KCNA1 (Kv1.1); 0.1 µM GABA
  Slope: 6.4 ± 0.5 mV
  Normalized tail current V0.5: -29.3 ± 0.88 mV
KCNA1 (Kv1.1); 1 µM GABA
  Slope: 6.1 ± 0.5 mV
  Normalized tail current V0.5: -28.4 ± 0.89 mV
KCNA1 (Kv1.1); 10 µM GABA
  Slope: 6.1 ± 0.5 mV
  Normalized tail current V0.5: -27.6 ± 0.82 mV
KCNA1 (Kv1.1); 100 µM GABA
  Slope: 6.2 ± 0.4 mV
  Normalized tail current V0.5: -27.2 ± 0.67 mV
KCNA1 (Kv1.1); 1 mM GABA
  Slope: 6.4 ± 0.6 mV
  Normalized tail current V0.5: -27.3 ± 0.93 mV
KCNA1 (Kv1.1); GABA 1 mM
  effect on peak current or normalized tail current: no effect
KCNQ1-KCNE1; 100 µM GABA, Ctrl 6.1 ± 0.8
  Normalized tail current V0.5: 3.3 ± 1.2 mV
KCNQ1-KCNE1; 100 µM GABA, Ctrl 6.3 ± 2.6
  Non-normalized tail current V0.5: 3.1 ± 2.7 mV
KCNQ1-KCNE1; 100 µM GABA, Ctrl 14 ± 0.7
  Slope: 13.2 ± 0.9 mV
KCNQ1-KCNE1; GABA 100 µM
  effect on KCNQ1-KCNE1 activity: no effect
KCNQ1-KCNE1; GABA 100 µM, unclamped oocytes
  effect on resting membrane potential (EM): does not alter
[1]; GABA 100 µM
  effect on endogenous currents or resting membrane potential: no effect
[1]; GABA 1 mM
  effect on water-injected oocytes: neither did increasing GABA to 1 mM produce any noticeable effects
[2]; Ctrl 14.3 ± 1.6
  Slope: 16.2 ± 3.0 mV
[2]; Ctrl -2.9 ± 2.7
  Normalized tail current V0.5: -17.5 ± 3.7 mV and −17.5 mV
[3]; blockers alone 17.4 ± 3.0
  Slope: 16.0 ± 3.2 mV
[3]; blockers alone -7.1 ± 7.6
  Normalized tail current V0.5: -20.6 ± 4.9 mV
[4]
  decrease of deactivating current at −60 mV: ~ 25%
[4]; at −20 mV
  mean GABA-dependent change in current: no mean change
[4]; at −60 mV, picrotoxin + CGP55845 present
  mean GABA-dependent current increase: threefold
[5]
  efficacy of channel activation, KCNQ3* compared to KCNQ5: more than threefold greater
[5]; 0.1 µM GABA
  Slope: 4.6 ± 0.9 mV
  Normalized tail current V0.5: -54.2 ± 1.5 mV
[5]; 1 µM GABA
  Slope: 4.3 ± 0.8 mV
[5]; 10 µM GABA
  Slope: 4.3 ± 3.5 mV
  Non-normalized tail current V0.5: -58.4 ± 2.7 mV
  Normalized tail current V0.5: -58.9 ± 1.0 mV
[5]; 100 µM GABA
  Slope: 4.8 ± 3.0 mV
  Non-normalized tail current V0.5: -59.4 ± 2.8 mV
  Normalized tail current V0.5: -59.8 ± 0.9 mV
[5]; 1 mM GABA
  Slope: 4.7 ± 3.3 mV
  Non-normalized tail current V0.5: -59.3 ± 2.5 mV
  Normalized tail current V0.5: -59.6 ± 0.9 mV
[5]; [7]
  effect on channel: activates
KCNQ1
  GABA sensitivity of channel activity: relatively GABA-insensitive
KCNQ1; 100 µM GABA, Ctrl -30.1 ± 2.2
  Non-normalized tail current V0.5: -32.6 ± 1.9 mV
KCNQ1; 100 µM GABA, Ctrl -34.1 ± 0.9
  Normalized tail current V0.5: -34.2 ± 0.8 mV
[6]
  competition of 3H-GABA binding: outcompeted
